Reference: patent US20240124431A1, “2,3-DIHYDRO-4H-BENZO[B][1,4]OXAZIN-4-YL)(5-(PHENYL)-PYRIDIN-3-YL)METHANONE DERIVATIVES AND SIMILAR COMPOUNDS AS CYP11A1 INHIBITORS FOR THE TREATMENT OF PROSTATE CANCER” (ORION CORPORATION, priority 2020, published 2024)

What follows are compounds tested against T1, CYP11A1 (Homo sapiens, UniProt P05108) (assay: CYP11A1 inhibition: pregnenolone biosynthesis measured by ELISA in NCI-H295R cells). Conditions: NCI-H295R cells treated for 24 hours, 10 concentrations in duplicates, read-out: IC50 on CYP11A1 inhibition (Group).
T1 construct: endogenous in cells; host or cells: NCI-H295R
T1 sequence (P05108 40-521): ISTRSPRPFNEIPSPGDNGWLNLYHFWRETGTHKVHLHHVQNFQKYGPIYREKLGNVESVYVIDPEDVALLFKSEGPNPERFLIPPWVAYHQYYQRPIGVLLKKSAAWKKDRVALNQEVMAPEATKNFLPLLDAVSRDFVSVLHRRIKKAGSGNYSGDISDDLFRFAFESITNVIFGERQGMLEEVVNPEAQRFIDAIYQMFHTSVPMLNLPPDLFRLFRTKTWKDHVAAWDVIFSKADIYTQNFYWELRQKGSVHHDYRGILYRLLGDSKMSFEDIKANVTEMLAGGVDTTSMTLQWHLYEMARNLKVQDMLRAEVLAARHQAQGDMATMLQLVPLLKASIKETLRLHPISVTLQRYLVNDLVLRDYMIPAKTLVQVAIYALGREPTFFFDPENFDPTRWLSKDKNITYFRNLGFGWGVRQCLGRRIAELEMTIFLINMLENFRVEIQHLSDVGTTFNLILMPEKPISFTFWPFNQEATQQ
Assay type: cell-based
Description: The ability of the test compounds to inhibit pregnenolone biosynthesis was measured by enzyme-linked immunosorbent assay (ELISA) detecting pregnenolone (Abnova Pregnenolone ELISA Kit, KA1912). […] To determine the half maximal inhibitory concentration (IC50) of the test compounds on CYP11A1 inhibition, the cells were treated for 24 hours with increasing concentrations of the test compound. The final DMSO concentration was 0.4%. Medium samples were diluted 1:6 and pregnenolone amounts determined with ELISA. Manufacturer's recommended protocols were used and pregnenolone (Sigma-Aldrich, P9129) standards were prepared in cell culture medium. Absorbance (A450) was measured with Envision plate reader (PerkinElmer). All the test compounds were studied at 10 concentrations in duplicates.

| SMILES | IC50 |
| --- | --- |
| Cn1cc(-c2cncc(C(=O)N3CCOc4ccccc43)c2)cn1 [Compound 73, (2,3-Dihydro-4H-benzo[b][1,4]oxazin-4-yl)(5-(1-methyl-1H-pyrazol-4-yl)-pyridin-3-yl)methanone] | 201 to 2500 nM |
| O=C(c1cncc(N2CCCC2)c1)N1CCOc2ccccc21 [Compound 74, (2,3-Dihydro-4H-benzo[b][1,4]oxazin-4-yl)(5-(pyrrolidin-1-yl)pyridin-3-yl)-methanone] | 201 to 2500 nM |
| CC1(C)C2CN(c3cncc(C(=O)N4CCOc5ccccc54)c3)CC21 (stereo not shown) [Compound 75] | 201 to 2500 nM |
| O=C(c1cncc(N2CCCC2)n1)N1CCOc2ccccc21 [Compound 76, (2,3-dihydro-4H-benzo[b][1,4]oxazin-4-yl)(6-(pyrrolidin-1-yl)pyrazin-2-yl)-methanone] | 201 to 2500 nM |
| O=C(c1cncc(N2CC(F)(F)C2)n1)N1CCOc2ccccc21 [Compound 77, (6-(3,3-Difluoroazetidin-1-yl)pyrazin-2-yl)(2,3-dihydro-4H-benzo[b][1,4]oxazin-4-yl)methanone] | 201 to 2500 nM |
| CN1CCN(c2cncc(C(=O)N3CCOc4ccccc43)n2)CC1 [Compound 78, (2,3-Dihydro-4H-benzo[b][1,4]oxazin-4-yl)(6-(4-methylpiperazin-1-yl)pyrazin-2-yl)methanone] | 201 to 2500 nM |
| O=C(Cc1cncc(-c2ccc(F)cc2)c1)N1CCCc2ccccc21 [Compound 79, 1-(3,4-Dihydroquinolin-1(2H)-yl)-2-(5-(4-fluorophenyl)pyridin-3-yl)ethan-1-one] | 201 to 2500 nM |
| COc1ccc(-c2cncc(CC(=O)N3CCOc4ccccc43)c2)cc1 [Compound 80, 1-(2,3-Dihydro-4H-benzo[b][1,4]oxazin-4-yl)-2-(5-(4-methoxyphenyl)pyridin-3-yl)ethan-1-one] | 201 to 2500 nM |
| c1ccc(-c2cncc(CN3CCOc4ccccc43)c2)cc1 [Compound 81, 4-((5-Phenylpyridin-3-yl)methyl)-3,4-dihydro-2H-benzo[b][1,4]oxazine] | 201 to 2500 nM |
| Cc1cn(-c2cncc(C(=O)N3CCCc4ccccc43)c2)cn1 [Compound 82, (3,4-Dihydroquinolin-1(2H)-yl)(5-(4-methyl-1H-imidazol-1-yl)pyridin-3-yl)-methanone] | 201 to 2500 nM |
| Cc1cn(-c2cncc(C(=O)N3CCCc4ccccc43)n2)cn1 [Compound 83, (3,4-Dihydroquinolin-1(2H)-yl)(6-(4-methyl-1H-imidazol-1-yl)pyrazin-2-yl)-methanone] | < 50 nM |
| Cc1cnn(-c2cncc(C(=O)N3CCCc4ccccc43)n2)c1 [Compound 84, (3,4-Dihydroquinolin-1(2H)-yl)(6-(4-methyl-1H-pyrazol-1-yl)pyrazin-2-yl)-methanone] | < 50 nM |
| O=C(c1cncc(Cc2ccccc2)n1)N1CCCc2ccccc21 [Compound 85, (6-Benzylpyrazin-2-yl)(3,4-dihydroquinolin-1(2H)-yl)methanone] | 201 to 2500 nM |
| O=C(Cc1cncc(-c2ccc(F)cc2)c1)N1CCOc2ccccc21 [Compound 86, 1-(2,3-Dihydro-4H-benzo[b][1,4]oxazin-4-yl)-2-(5-(4-fluorophenyl)pyridin-3-yl)ethan-1-one] | 201 to 2500 nM |
| Cc1cc(C)n(-c2cncc(C(=O)N3CCCc4ccccc43)n2)n1 [Compound 87, (3,4-Dihydroquinolin-1(2H)-yl)(6-(3,5-dimethyl-1H-pyrazol-1-yl)pyrazin-2-yl)-methanone] | 51 to 200 nM |
| Cc1cnn(-c2cncc(C(=O)N3CCCc4ccccc43)c2)c1 [Compound 88, (3,4-Dihydroquinolin-1(2H)-yl)(5-(4-methyl-1H-pyrazol-1-yl)pyridin-3-yl)-methanone] | < 50 nM |
| Fc1ccc(-c2cncc(CN3CCCc4ccccc43)c2)cc1 [Compound 89, 1-((5-(4-Fluorophenyl)pyridin-3-yl)methyl)-1,2,3,4-tetrahydroquinoline] | 51 to 200 nM |
| Fc1ccc(-c2cncc(CN3CCc4ccccc43)c2)cc1 [Compound 90, 1-((5-(4-Fluorophenyl)pyridin-3-yl)methyl)indoline] | 51 to 200 nM |
| Fc1ccc(-c2cncc(CN3CCOc4ccccc43)c2)cc1 [Compound 91] | 201 to 2500 nM |
